From publication PMC4596473 (PLoS ONE, 2015)
Entries after “also recorded” stand apart in the source; their conditions may differ. Read-outs that look alike come from different tables or passages of the source.

Experiments:
[1] = test system: healthy Japanese subjects; experiment: Thorough QT/QTc study: 12-lead ECG assessment of QTcF/QTcB; assay type: in vivo, human; details: for Upper bound of the 90% two-sided CI of the least squares mean ΔΔQTcB: all time points, data not shown; for Upper bound of the 90% two-sided CI for the least squares mean ΔΔQTcF: single dose, all time points 0.5-24 h post-dose; for Least squares mean ΔΔQTcF: moxifloxacin 400 mg single dose
Procedure: The study was conducted at Kitasato Institute Hospital (Tokyo, Japan) from July 6th 2011 to September 15th 2011. […] All treatments were administered with 200 mL of water after at least 10-hour overnight fast, and no food was allowed until 4 hours after dosing. All treatments were administered in a randomized sequence. The random assignment manager randomly assigned treatment groups using the Williams Design to determine the order of treatments within each treatment sequence by the time of study drug administration to the first admission group. A randomization code was created for each treatment sequence sealed and securely retained until unblinding and were provided to the sponsor after unblinding.
Serial triplicate digital 12-lead electrocardiograms (ECGs) were recorded over 5 min in the supine position after resting for 10 min for each time point (pre-dose [50–70 min before dosing], 0.5, 1, 2, 3, 4, 6, 8, and 24 h post-dose) using an electrocardiograph (ELI250, Mortara). The same model of 12-lead digital surface ECG monitor was employed for all subjects at all time points. The same lead was used throughout the study. The interval between the start of each recording was ≥1 min, and ECG was recorded for 10 s for each chart. All 12-lead ECG charts for QT/QTc analysis were sent electronically to the central ECG analysis facility. RR and QT intervals were measured in accordance with the procedures of the facility. The time of recording and subject identification information were blinded before measurement. QTc intervals were corrected by Fridericia’s (QTcF = QT/RR^1/3) and Bazett’s (QTcB = QT/RR^1/2) formulae. QTcF was the primary endpoint, and QTcB was the secondary endpoint.
Treatment comparisons between luseogliflozin therapeutic dose or supratherapeutic dose and placebo (ΔΔQTc) were analyzed using a linear mixed model with treatment, sequence, period, scheduled time, and the interaction of treatment with scheduled time as fixed effects, subject as a random effect, and baseline QTc as a covariate. The effect of luseogliflozin on QT/QTc interval prolongation was regarded as negative when the upper bound of the 90% two-sided confidence interval (CI) for the mean effect on the QT/QTc interval […] 10 ms at all time points in the luseogliflozin groups.
A categorical analysis was also performed. New onset of QTc greater than 450, 480, or 500 ms after dosing or change from baseline in QTc greater than 30 or 60 ms was categorized in each treatment group.

[2] = test system: healthy Japanese subjects; experiment: Safety assessment (adverse events, vital signs, ECG, laboratory tests); assay type: in vivo, human; details: for Tolerability: single dose of luseogliflozin 5 mg and 20 mg
Text: Safety assessments included recording of adverse events, vital signs (body temperature, blood pressure, and pulse rate), physical examinations, ECGs, and clinical laboratory tests.

[3] = test system: human ether-a-go-go-related gene (hERG) current; experiment: hERG current in hERG-transfected HEK293 cells in vitro; assay type: cell-based; details: versus Cmax of a 5 mg dose in diabetic subjects in a clinical study
Text: In non-clinical studies, effects of luseogliflozin on the cardiovascular system were investigated via the human ether-a-go-go-related gene (hERG) current in hERG-transfected human embryonic kidney cells (HEK293 cells) in vitro; action potential in the papillary muscle of anesthetized guinea pigs; and blood pressure, heart rate, and electrocardiogram (ECG) in conscious beagle dogs.

[4] = human, in vivo, po
Procedure: (§1) The plasma concentrations of luseogliflozin and its metabolites were determined by two separate methods at JCL Bioassay Corp. (Hyogo, Japan). Luseogliflozin, its metabolites and its deuterium-labeled internal standard (luseogliflozin-d5, M2-d5 and M17-d5, Taisho Pharmaceutical Co. Ltd., Japan) were extracted from plasma by solid phase extraction. Extracts were analysed by LC-MS/MS. The lower limit of quantification (LLOQ) for luseogliflozin and its metabolites (M2 and M17) in plasma were 0.05 and 0.1 ng/mL, respectively. […] Extracts were analysed by LC-MS/MS. […] Summary statistics were provided for the pharmacokinetic parameters by treatment group.

[5] = test system: human ether-a-go-go-related gene (hERG) current; details: at 9.6 μmol/L; non-clinical study; cited from earlier work
[6] = test system: papillary muscle of anesthetized guinea pigs; details: non-clinical study; cited from earlier work
conscious beagle dogs = details: non-clinical study; cited from earlier work
[7] = cited from earlier work
[8] = test system: Japanese patients with type 2 diabetes mellitus; details: cited from earlier work
SGLT2 = details: read-out: 50% inhibitory concentration (IC50); SGLT2, human expressing cells, nonclinical study; cited from earlier work
SGLT1 = details: read-out: 50% inhibitory concentration (IC50); SGLT1, human expressing cells, nonclinical study; cited from earlier work
rats = details: 26-week repeated dose; cited from earlier work
dogs = details: 52-week repeated dose; cited from earlier work
clinical = details: human, in vivo, po
Procedure: as §1

[9] = luseogliflozin 20 mg (supratherapeutic dose)
[10] = TS-071 25 mg single oral dose, healthy adult males, ref Investigator's Brochure of TS-071 (Version 6)

In the case of `CCOc1ccc(Cc2cc([C@@H]3S[C@H](CO)[C@@H](O)[C@H](O)[C@H]3O)c(OC)cc2C)cc1` [Luseogliflozin, (1S)-1,5-anhydro-1-[5-(4-ethoxybenzyl)-2-methoxy-4-methylphenyl]-1-thio-D-glucitol], the “Upper bound of the 90% two-sided CI of the least squares mean ΔΔQTcB” value ([1]; luseogliflozin 5 mg (anticipated therapeutic dose)) is reported as < 10 ms, the “Upper bound of the 90% two-sided CI for the least squares mean ΔΔQTcF” value ([1]; luseogliflozin 5 mg (therapeutic dose)) is reported as “less than 10 ms” and the “Correlation between ΔΔQTcF and plasma concentration of unchanged compound” value ([1]; luseogliflozin 5 mg and 20 mg) is reported as “No meaningful correlation; also recorded: no relationship”. The “Hysteresis of mean ΔΔQTcF versus mean plasma concentration” value ([1]; luseogliflozin 5 mg and 20 mg) was “no clear hysteresis effect”, the “Number (%) of Subjects, QTcF Increase >30 ms from baseline” value ([1]; luseogliflozin 5 mg, n = 56) was 0 (0.0) n (%) and the “Number (%) of Subjects, QTcF Increase >60 ms from baseline” value ([1]; luseogliflozin 5 mg, n = 56) was 0 (0.0) n (%). For the same molecule, the “Number (%) of Subjects, QTcF Value >450 ms” value ([1]; luseogliflozin 5 mg, n = 56) was 1 (1.8) n (%), the “Number (%) of Subjects, QTcF Value >480 ms” value ([1]; luseogliflozin 5 mg, n = 56) was 0 (0.0) n (%) and the “Number (%) of Subjects, QTcF Value >500 ms” value ([1]; luseogliflozin 5 mg, n = 56) was 0 (0.0) n (%). The “Upper bound of the 90% two-sided CI for the least squares mean ΔΔQTcF” value [1, 9] was “less than 10 ms”, the “Upper bound of the 90% two-sided CI of the least squares mean ΔΔQTcB” value [1, 9] was < 10 ms and the “Number (%) of Subjects, QTcF Increase >30 ms from baseline” value ([1]; luseogliflozin 20 mg, n = 53) was 0 (0.0) n (%). The “Number (%) of Subjects, QTcF Increase >60 ms from baseline” value ([1]; luseogliflozin 20 mg, n = 53) was 0 (0.0) n (%), the “Number (%) of Subjects, QTcF Value >450 ms” value ([1]; luseogliflozin 20 mg, n = 53) was 0 (0.0) n (%) and the “Number (%) of Subjects, QTcF Value >480 ms” value ([1]; luseogliflozin 20 mg, n = 53) was 0 (0.0) n (%). For the same molecule, the “Number (%) of Subjects, QTcF Value >500 ms” value ([1]; luseogliflozin 20 mg, n = 53) was 0 (0.0) n (%), the “Adverse events moderate in severity, number of events” value ([2]; 5 mg luseogliflozin group) was “two” and the “Subjects with first-degree atrioventricular block” value ([2]; 5 mg luseogliflozin group) was “one”. The “Prolonged PR interval in the subject with first-degree atrioventricular block” value ([2]; 48 h after administration of luseogliflozin 5 mg, one subject) was 452 ms, the “Relation of cardiovascular adverse events to the study drug” value ([2]; after administration of luseogliflozin) was “not related to the study drug” and the “Percentage of subjects with an adverse event” value (“Percentage of subjects” for short) ([2]; luseogliflozin 5 mg group) was 41.1%. For the same molecule, the “AEs, n (number of events)” value ([2]; luseogliflozin 5 mg, n = 56) was 48 n, the “Drug-related AEs, n (number of events)” value ([2]; luseogliflozin 5 mg, n = 56) was 20 n and the “Percentage of subjects” value ([2]; luseogliflozin 20 mg group) was 35.8%. For the same molecule, the “AEs, n (number of events)” value ([2]; luseogliflozin 20 mg, n = 53) was 32 n, the “Drug-related AEs, n (number of events)” value ([2]; luseogliflozin 20 mg, n = 53) was 16 n and the Tolerability [2] was “well tolerated”. The Tolerability ([2]; listed as luseogliflozin) was “safe and well tolerated”, the “Ratio of hERG test concentration (9.6 μmol/L) to the maximum observed Cmax” value [3] was “approximately 370 times” and the Tmax ([4]; 5 mg) was 1.34 ± 0.935 h. The T1/2 ([4]; 20 mg) was 9.90 ± 1.22 h, the “Suppression of hERG current” value [5] was 7.7% and the “Effect on the cardiovascular system” value [6] was “No effect”. The “Effect on the cardiovascular system” value (conscious beagle dogs) was “No effect”, the “Mean Tmax” value ([7]; TS-071 15 mg single oral dose, healthy adult males, ref Investigator's Brochure of TS-071 (Version 6)) was 1.56 h and the “Mean T1/2” value [7, 10] was 12.6 h. The “Mean Tmax” value [7, 10] was 2.25 h, the “Time to maximum plasma concentration (Tmax)” value ([7]; single dose 1–25 mg) was ≤ 2.25 h and the “Urinary glucose excretion in comparison to placebo” value ([8]; 0.5, 1, 2.5 and 5 mg/day, Japanese patients with type 2 diabetes mellitus) was “significantly increased”. The “Observed Cmax of unchanged TS-071” value ([8]; Day 7, 7-day repeated administration of 5 mg, patients with type 2 diabetes) was 299 ng/mL, the IC50 (SGLT2) was 2.26 nM and the IC50 (SGLT1) was 2900 nM. The “Dose levels with diarrhoea or soft stools” value (rats) was ≥ 100 mg/kg, the “No observed adverse effect level” value (rats) was 4 mg/kg and the “Dose levels with diarrhoea or soft stools” value (dogs) was ≥ 10 mg/kg. The “No observed adverse effect level” value (dogs) was 2 mg/kg, the AUC(0-inf) (clinical; 5 mg) was 2110 ± 418 ng·h/mL and the Cmax (clinical; 5 mg) was 209 ± 48.9 ng/mL. For the same molecule, the half-life (clinical; 5 mg) was 10 ± 1.18 h, the Tmax (clinical; 5 mg) was 1.3 h and the AUC(0-inf) (clinical; 20 mg) was 8650 ± 1780 ng·h/mL. The Cmax (clinical; 20 mg) was 787 ± 186 ng/mL and the Tmax (clinical; 20 mg) was 1.5 ± 0.961 h.
`COc1cc(C)c(Cc2ccc(O)cc2)cc1[C@@H]1S[C@H](CO)[C@@H](O)[C@H](O)[C@H]1O` [M2] showed an AUCinf ([4]; 5 mg) of 257 ± 48.3 ng·h/mL, a Cmax ([4]; 5 mg) of 8.85 ± 1.95 ng/mL and a T1/2 ([4]; 5 mg) of 13.8 ± 2.61 h. For the same molecule, the Tmax ([4]; 5 mg) was 5.71 ± 2.14 h, the AUCinf ([4]; 20 mg) was 1030 ± 212 ng·h/mL and the Cmax ([4]; 20 mg) was 35.1 ± 7.36 ng/mL. For the same molecule, the T1/2 ([4]; 20 mg) was 13.9 ± 2.53 h and the Tmax ([4]; 20 mg) was 5.83 ± 1.90 h.
`COc1cc(C)c(Cc2ccc(OCC(=O)O)cc2)cc1[C@@H]1S[C@H](CO)[C@@H](O)[C@H](O)[C@H]1O` [M17] showed an AUCinf ([4]; 5 mg) of 120 ± 41.9 ng·h/mL, a Cmax ([4]; 5 mg) of 6.02 ± 2.10 ng/mL and a T1/2 ([4]; 5 mg) of 10.9 ± 1.49 h. For the same molecule, the Tmax ([4]; 5 mg) was 4.89 ± 1.14 h, the AUCinf ([4]; 20 mg) was 487 ± 196 ng·h/mL and the Cmax ([4]; 20 mg) was 24.3 ± 9.98 ng/mL. It also gave a T1/2 ([4]; 20 mg) of 10.9 ± 1.71 h and a Tmax ([4]; 20 mg) of 5.13 ± 1.14 h.
In the case of `COc1c(N2C[C@@H]3CCCN[C@@H]3C2)c(F)cc2c(=O)c(C(=O)O)cn(C3CC3)c12` [Moxifloxacin, moxifloxacin, reference compound], the “Correlation between ΔΔQTcF and plasma concentration of unchanged compound” value ([1]; moxifloxacin 400 mg) is reported as “positive relationship; also recorded: positive correlation”, the “Hysteresis of mean ΔΔQTcF versus mean plasma concentration” value ([1]; moxifloxacin 400 mg) is reported as “counter-clockwise hysteresis effect; also recorded: counterclockwise hysteresis” and the “Least squares mean ΔΔQTcF” value ([1]; 3 and 4 hour post-dose) is reported as 13.4 ms. For the same molecule, the “Least squares mean ΔΔQTcF” value ([1]; 24 h post-dose) was 7.7 ms, the “Number (%) of Subjects, QTcF Increase >30 ms from baseline” value ([1]; moxifloxacin 400 mg, n = 54) was 0 (0.0) n (%) and the “Number (%) of Subjects, QTcF Increase >60 ms from baseline” value ([1]; moxifloxacin 400 mg, n = 54) was 0 (0.0) n (%). For the same molecule, the “Number (%) of Subjects, QTcF Value >450 ms” value ([1]; moxifloxacin 400 mg, n = 54) was 7 (13.0) n (%), the “Number (%) of Subjects, QTcF Value >480 ms” value ([1]; moxifloxacin 400 mg, n = 54) was 0 (0.0) n (%) and the “Number (%) of Subjects, QTcF Value >500 ms” value ([1]; moxifloxacin 400 mg, n = 54) was 0 (0.0) n (%). The “Number (%) of Subjects, QTcF Value >450 ms” value ([1]; moxifloxacin 400 mg, n = 54, listed as moxifloxacin) was 7 n (%), the “Regression of ΔΔQTcF (msec) on plasma concentration (μg/mL)” value ([1]; moxifloxacin 400 mg, text in Fig 6) was “ΔΔQTcF = 3.42+3.03xConc” and the “Percentage of subjects” value ([2]; moxifloxacin 400 mg group) was 72.2%. For the same molecule, the “AEs, n (number of events)” value ([2]; moxifloxacin 400 mg, n = 54) was 56 n, the “Drug-related AEs, n (number of events)” value ([2]; moxifloxacin 400 mg, n = 54) was 36 n and the Tmax ([4]; 400 mg) was 2.19 ± 1.09 h. For the same molecule, the AUC(0-inf) (clinical; 400 mg) was 60000 ± 11100 ng·h/mL, the Cmax (clinical; 400 mg) was 3880 ± 939 ng/mL and the Tmax (clinical; 400 mg) was 2.2 h.
